The target in the test is T1, human PD-1 (Jurkat-PD-1 cells) / PE-labeled human PD-L1-Ig (Homo sapiens, UniProt Q15116).
T1 construct: expressed in transfected cells; host or cells: Jurkat cell line over-expressing human PD-1
As to the kind of experiment: Jurkat-PD-1 Cell Binding High-Content Screening Assay (CBA); Jurkat hPD1-PDL1 assay. Particulars: Jurkat cell line over-expressing human PD-1; PE-labeled PD-L1-Ig 20 nM final; compound incubated 2 hours at 37° C.; read-out: Jurkat HPD1-PDL1 IC50. In short, it runs like this: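 Binding of phycoerythrin-conjugated PD-L1-Ig (20 nM final) to PD-1-overexpressing Jurkat cells was read by high-content imaging. Cells in DMEM/10% FCS were exposed to compound for 2 hours at 37° C before labeled ligand was added.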

Positions of bridges follow the written chain, without caps; N, C: chain ends. Non-standard residues stand in square brackets, D forms with d. Residues, ends and D or L forms follow the SMILES beside them. ξ: configuration not given here. Tyr(3,5-Br2) = N[C@@H](Cc1cc(Br)c(O)c(Br)c1)C(=O)O; Phe(4-COOH) = N[C@@H](Cc1ccc(C(=O)O)cc1)C(=O)O; Bip = N[C@@H](Cc1ccc(-c2ccccc2)cc1)C(=O)O; Phe(3-Br) = N[C@@H](Cc1cccc(Br)c1)C(=O)O; Phe(3-Me) = Cc1cccc(C[C@H](N)C(=O)O)c1; NMeF = CN[C@@H](Cc1ccccc1)C(=O)O; 4Pal = N[C@@H](Cc1ccncc1)C(=O)O; Cha = N[C@@H](CC1CCCCC1)C(=O)O; NMeL = CN[C@@H](CC(C)C)C(=O)O; NMeA = CN[C@@H](C)C(=O)O; Orn = NCCC[C@H](N)C(=O)O; Dab = NCC[C@H](N)C(=O)O; Dap = NC[C@H](N)C(=O)O; ξV = CC(C)C(N)C(=O)O; Sar = CNCC(=O)O

These results are taken from patent publication US20240360178A1, “MACROCYCLIC IMMUNOMODULATORS” (Bristol-Myers Squibb Company, priority 2021, published 2024).

T1 sequence (Q15116 25-288): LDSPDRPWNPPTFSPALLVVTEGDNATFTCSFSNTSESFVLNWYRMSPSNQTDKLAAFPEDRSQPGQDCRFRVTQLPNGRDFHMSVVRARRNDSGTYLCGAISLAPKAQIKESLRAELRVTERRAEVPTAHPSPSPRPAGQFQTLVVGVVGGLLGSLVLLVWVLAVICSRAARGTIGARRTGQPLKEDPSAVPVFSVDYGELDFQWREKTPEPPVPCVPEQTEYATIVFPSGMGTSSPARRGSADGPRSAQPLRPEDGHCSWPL

Take `CC(C)C[C@@H]1NC(=O)[C@H](CCCNC(=N)N)NC(=O)[C@H](Cc2ccccc2)N(C)C(=O)[C@H](C)N(C)C(=O)[C@H](CN)NC(=O)[C@H](Cc2ccc(-c3ccccc3)cc2)NC(=O)[C@H](C(C)C)NC(=O)[C@H](Cc2c[nH]c3ccccc23)NC(=O)[C@H](CC(=O)O)NC(=O)[C@H](Cc2ccc(O)cc2)NC(=O)[C@H](Cc2ccccc2)NC(=O)CSC[C@@H](C(=O)NCC(N)=O)NC(=O)[C@H](CO)NC(=O)[C@H](C(C)C)NC1=O` [Example 1242] ({CH2CO}-FYDWV[Bip][Dap][NMeA][NMeF]RLVSCG-NH2; thioether N-14): the IC50 (as a rule, the concentration needed to halve the response being measured) worked out at 240 nM.
On to `CC(C)C[C@@H]1NC(=O)[C@H](Cc2c[nH]c3ccccc23)NC(=O)[C@H](CC(=O)O)NC(=O)[C@H](Cc2ccc(O)cc2)NC(=O)[C@H](C(C)C)NC(=O)CSC[C@@H](C(=O)NCC(N)=O)NC(=O)[C@H](CO)NC(=O)[C@H](C(C)C)NC(=O)[C@H](CC(C)C)NC(=O)[C@H](CC(N)=O)NC(=O)CN(C)C(=O)[C@H](C)N(C)C(=O)[C@H](C(C)C)NC(=O)[C@H](Cc2ccc(-c3ccccc3)cc2)NC1=O` [Example 1154] ({CH2CO}-VYDWL[Bip]V[NMeA][Sar]NLVSCG-NH2; thioether N-14), for which the half-inhibitory concentration (IC50) stood at 790 nM.
`CC(C)C[C@@H]1NC(=O)[C@H](CCCNC(=N)N)NC(=O)[C@H](Cc2ccccc2)N(C)C(=O)[C@H](C)N(C)C(=O)[C@H](CCCNC(=N)N)NC(=O)[C@H](Cc2ccc(-c3ccccc3)cc2)NC(=O)[C@H](C(C)C)NC(=O)[C@H](Cc2c[nH]c3ccccc23)NC(=O)[C@H](CC(=O)O)NC(=O)[C@H](Cc2ccc(O)cc2)NC(=O)[C@H](Cc2ccccc2)NC(=O)CSC[C@@H](C(=O)NCC(N)=O)NC(=O)[C@H](CC(=O)O)NC(=O)[C@H](C(C)C)NC1=O` [Example 1333] ({CH2CO}-FYDWV[Bip]R[NMeA][NMeF]RLVDCG-NH2; thioether N-14): the 50% inhibitory concentration (IC50) was determined as 680 nM.
Take `Cc1cccc(C[C@@H]2NC(=O)[C@H](CC(=O)O)NC(=O)[C@H](Cc3ccc(C(=O)O)cc3)NC(=O)[C@H](Cc3ccncc3)NC(=O)CSC[C@@H](C(=O)N[C@@H](C)C(N)=O)NC(=O)[C@H]([C@@H](C)O)NC(=O)[C@H](C(C)C)NC(=O)[C@H](CC3CCCCC3)NC(=O)[C@H](CCN)NC(=O)[C@H](Cc3ccccc3)N(C)C(=O)[C@H](CCCN)NC(=O)[C@H](CCC(=O)O)NC(=O)[C@H](Cc3ccc(-c4ccccc4)cc3)NC(=O)C(C(C)C)NC2=O)c1` (stereo partly drawn) [Example 1444] ({CH2CO}-[4Pal][Phe(4-COOH)]D[Phe(3-Me)][ξV][Bip]E[Orn][NMeF][Dab][Cha]VTCA-NH2; thioether N-14): the IC50 stood at 50 nM.
As to `CC(C)C[C@@H]1NC(=O)[C@H](Cc2c[nH]c3ccccc23)NC(=O)[C@H](CC(=O)O)NC(=O)[C@H](Cc2ccc(O)cc2)NC(=O)[C@H](Cc2ccccc2)NC(=O)CSC[C@@H](C(=O)N[C@@H](C)C(N)=O)NC(=O)[C@H]([C@@H](C)O)NC(=O)[C@H](C(C)C)NC(=O)[C@H](CC(C)C)NC(=O)[C@H](CCN)NC(=O)[C@H]2CCCN2C(=O)[C@H](CN)NC(=O)[C@H](C(C)C)NC(=O)[C@H](Cc2ccc(-c3ccccc3)cc2)NC1=O` [Example 1409] ({CH2CO}-FYDWL[Bip]V[Dap][dP][Dab]LVTCA-NH2; thioether N-14), the IC50 came out at 280 nM.
With `CC(C)C[C@@H]1NC(=O)[C@H](Cc2c[nH]c3ccccc23)NC(=O)[C@H](CC(=O)O)NC(=O)[C@H](Cc2cccc(Br)c2)NC(=O)[C@H](Cc2ccccc2)NC(=O)CSC[C@@H](C(=O)N[C@@H](C)C(N)=O)NC(=O)[C@H](CO)NC(=O)[C@H](C(C)C)NC(=O)[C@H](CC(C)C)NC(=O)[C@H](CC(N)=O)NC(=O)[C@H]2CCCN2C(=O)[C@H](C)N(C)C(=O)[C@H](C(C)C)NC(=O)[C@H](Cc2ccc(-c3ccccc3)cc2)NC1=O` [Example 1065] ({CH2CO}-F[Phe(3-Br)]DWL[Bip]V[NMeA][dP]NLVSCA-NH2; thioether N-14), the half-maximal inhibitory concentration (IC50) was 120 nM.
With `CC(C)C[C@@H]1NC(=O)[C@H](Cc2c[nH]c3ccccc23)NC(=O)[C@H](CC(=O)O)NC(=O)[C@H](Cc2ccc(O)cc2)NC(=O)[C@H](Cc2ccccc2)NC(=O)CSC[C@@H](C(=O)NCC(N)=O)NC(=O)[C@H](CO)NC(=O)[C@H](C(C)C)NC(=O)[C@H](CC(C)C)NC(=O)[C@H](CCCNC(=N)N)NC(=O)[C@H](Cc2ccccc2)N(C)C(=O)[C@H](C)N(C)C(=O)[C@H](CCCNC(=N)N)NC(=O)[C@H](Cc2ccc(-c3ccccc3)cc2)NC1=O` [Example 1327] ({CH2CO}-FYDWL[Bip]R[NMeA][NMeF]RLVSCG-NH2; thioether N-14), the IC50 came out at 120 nM.
To `CC(C)C[C@@H]1NC(=O)[C@H](Cc2c[nH]c3ccccc23)NC(=O)[C@H](CC(=O)O)NC(=O)[C@H](Cc2cc(Br)c(O)c(Br)c2)NC(=O)[C@H](Cc2ccccc2)NC(=O)CSC[C@@H](C(=O)N[C@@H](C)C(N)=O)NC(=O)[C@H](CO)NC(=O)[C@H](C(C)C)NC(=O)[C@H](CC(C)C)NC(=O)[C@H](CC(N)=O)NC(=O)CN(C)C(=O)[C@H](C)N(C)C(=O)[C@H](C(C)C)NC(=O)[C@H](Cc2ccc(-c3ccccc3)cc2)NC1=O` [Example 1113] ({CH2CO}-F[Tyr(3,5-Br2)]DWL[Bip]V[NMeA][Sar]NLVSCA-NH2; thioether N-14) belongs 370 nM.
Take `CC(C)C[C@@H]1NC(=O)CSC[C@@H](C(=O)N[C@@H](C)C(N)=O)NC(=O)[C@H](CO)NC(=O)[C@H](C(C)C)NC(=O)[C@H](CC(C)C)NC(=O)[C@H](CCCNC(=N)N)NC(=O)[C@H](Cc2ccccc2)N(C)C(=O)[C@H](C)N(C)C(=O)[C@H](CCCNC(=N)N)NC(=O)[C@H](Cc2ccc(-c3ccccc3)cc2)NC(=O)[C@H](C(C)C)NC(=O)[C@H](Cc2c[nH]c3ccccc23)NC(=O)[C@H](CC(=O)O)NC(=O)[C@H](Cc2ccc(O)cc2)NC1=O` [Example 1308] ({CH2CO}-LYDWV[Bip]R[NMeA][NMeF]RLVSCA-NH2; thioether N-14): the IC50 was determined as 410 nM.
To `CC(C)C[C@@H]1NC(=O)[C@H](Cc2c[nH]c3ccccc23)NC(=O)[C@H](CC(=O)O)NC(=O)[C@H](Cc2ccc(O)cc2)NC(=O)[C@H](Cc2ccccc2)NC(=O)CSC[C@@H](C(=O)NCC(N)=O)NC(=O)[C@H](CO)NC(=O)[C@H](C(C)C)NC(=O)[C@H](CC(C)C)NC(=O)[C@H](CC(N)=O)NC(=O)[C@H]2CCCN2C(=O)[C@H](CCN)NC(=O)[C@H](C(C)C)NC(=O)[C@H](Cc2ccc(-c3ccccc3)cc2)NC1=O` [Example 1413] ({CH2CO}-FYDWL[Bip]V[Dab][dP]NLVSCG-NH2; thioether N-14) belongs 90 nM; to `CC(C)C[C@@H]1NC(=O)[C@H](CCCNC(=N)N)NC(=O)[C@H](Cc2ccccc2)N(C)C(=O)[C@H](C)N(C)C(=O)[C@H](CCCNC(=N)N)NC(=O)[C@H](Cc2ccc(-c3ccccc3)cc2)NC(=O)[C@H](C(C)C)NC(=O)[C@H](Cc2c[nH]c3ccccc23)NC(=O)[C@H](CC(=O)O)NC(=O)[C@H](Cc2ccc(O)cc2)NC(=O)[C@H](CCCNC(=N)N)NC(=O)CSC[C@@H](C(=O)NCC(N)=O)NC(=O)[C@H](CO)NC(=O)[C@H](C(C)C)NC1=O` [Example 1212] ({CH2CO}-RYDWV[Bip]R[NMeA][NMeF]RLVSCG-NH2; thioether N-14), 610 nM.
As to `CC(C)C[C@@H]1NC(=O)[C@H](Cc2c[nH]c3ccccc23)NC(=O)[C@H](CC(=O)O)NC(=O)[C@H](Cc2ccc(O)cc2)NC(=O)[C@H](Cc2ccccc2)NC(=O)CSC[C@@H](C(=O)N[C@@H](C)C(N)=O)NC(=O)[C@H](CO)NC(=O)[C@H](C(C)C)NC(=O)[C@H](CC(C)C)NC(=O)[C@H](CCC(=O)O)NC(=O)CN(C)C(=O)[C@H](C)N(C)C(=O)[C@H](C(C)C)NC(=O)[C@H](Cc2ccc(-c3ccccc3)cc2)NC1=O` [Example 1108] ({CH2CO}-FYDWL[Bip]V[NMeA][Sar]ELVSCA-NH2; thioether N-14), the IC50 was 340 nM.
`CC(C)C[C@@H]1NC(=O)[C@H](CCCNC(=N)N)NC(=O)[C@H](Cc2ccccc2)N(C)C(=O)[C@H](C)N(C)C(=O)[C@H](CCCNC(=N)N)NC(=O)[C@H](Cc2ccc(-c3ccccc3)cc2)NC(=O)[C@H](C(C)C)NC(=O)[C@H](Cc2c[nH]c3ccccc23)NC(=O)[C@H](CC(=O)O)NC(=O)[C@H](Cc2ccc(O)cc2)NC(=O)[C@H](CN)NC(=O)CSC[C@@H](C(=O)NCC(N)=O)NC(=O)[C@H](CO)NC(=O)[C@H](C(C)C)NC1=O` [Example 1264] ({CH2CO}-[Dap]YDWV[Bip]R[NMeA][NMeF]RLVSCG-NH2; thioether N-14): the IC50 is 160 nM.
Turning to `CC(C)C[C@@H]1NC(=O)[C@H](CCCNC(=N)N)NC(=O)[C@H](CC(C)C)N(C)C(=O)[C@H](C)N(C)C(=O)[C@H](CCCNC(=N)N)NC(=O)[C@H](Cc2ccc(-c3ccccc3)cc2)NC(=O)[C@H](C(C)C)NC(=O)[C@H](Cc2c[nH]c3ccccc23)NC(=O)[C@H](CC(=O)O)NC(=O)[C@H](Cc2ccc(O)cc2)NC(=O)[C@H](Cc2ccccc2)NC(=O)CSC[C@@H](C(=O)NCC(N)=O)NC(=O)[C@H](CO)NC(=O)[C@H](C(C)C)NC1=O` [Example 1281] ({CH2CO}-FYDWV[Bip]R[NMeA][NMeL]RLVSCG-NH2; thioether N-14), the half-maximal inhibitory concentration (IC50) amounted to 460 nM.
To `CC(C)C[C@@H]1NC(=O)[C@H](Cc2c[nH]c3ccccc23)NC(=O)[C@H](CC(=O)O)NC(=O)[C@H](Cc2ccc(O)cc2)NC(=O)[C@H](Cc2ccccc2)NC(=O)CSC[C@@H](C(=O)NCC(N)=O)NC(=O)[C@H](CCCNC(=N)N)NC(=O)[C@H](C(C)C)NC(=O)[C@H](CC(C)C)NC(=O)[C@H](CC(N)=O)NC(=O)CN(C)C(=O)[C@H](C)N(C)C(=O)[C@H](C(C)C)NC(=O)[C@H](Cc2ccc(-c3ccccc3)cc2)NC1=O` [Example 1226] ({CH2CO}-FYDWL[Bip]V[NMeA][Sar]NLVRCG-NH2; thioether N-14) belongs 890 nM.
